Laboratory results as given in ChEMBL document CHEMBL1201862, “PubChem BioAssay data set” (2004).
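Grown in 96-well plates, cells were treated for 48 hours with each compound at five concentrations. Insufficient inhibition: endpoint recorded as highest concentration tested. GI50: concentration for 50% inhibition of growth.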 Activity calls are given as the source filed them. No stated cut-off is given here; in the data, active = GI50 up to about 1.1 µM and inactive = higher.

Key:
Experiment in all cases: DTP human tumour cell line panel, 48 h
[1] = tested on: CAKI-1
[2] = tested on: CCRF-CEM
[3] = tested on: COLO 205
[4] = tested on: Hs-578T
[5] = tested on: K562
[6] = tested on: KM12
[7] = tested on: M14
[8] = tested on: Malme-3M
[9] = tested on: NCI/ADR-RES
[10] = tested on: OVCAR-4
[11] = tested on: OVCAR-8
[12] = tested on: SK-MEL-28
[13] = tested on: SK-MEL-5
[14] = tested on: SK-OV-3
[15] = tested on: SW-620
[16] = tested on: TK-10
[17] = tested on: U-251
[18] = tested on: UACC-257
[19] = tested on: UACC-62
[20] = tested on: UO-31

Measured: GI50

O=C(OCc1ccccc1)c1nc2ccccc2n1S(=O)(=O)c1ccccc1
inactive: [1] > 100 µM | [2] > 100 µM | [3] 88.7 µM | [4] > 100 µM | [5] > 100 µM | [6] > 100 µM | [7] > 100 µM | [8] 88.9 µM | [9] > 100 µM | [10] > 100 µM | [11] > 100 µM | [12] > 100 µM | [13] 80.4 µM | [14] > 100 µM | [15] > 100 µM | [16] > 100 µM | [17] > 100 µM | [18] > 100 µM | [19] > 100 µM | [20] > 100 µM

CSC1(C(=O)O)C2CCC3C2CCC31 (configuration not stated)
inactive: [1] > 100 µM | [2] 52.6 µM | [3] > 100 µM | [4] > 100 µM | [5] 73.3 µM | [6] > 100 µM | [7] > 100 µM | [8] > 100 µM | [9] > 100 µM | [10] > 100 µM | [11] > 100 µM | [12] > 100 µM | [13] > 100 µM | [14] > 100 µM | [15] > 100 µM | [16] > 100 µM | [17] > 100 µM | [18] > 100 µM | [19] > 100 µM | [20] > 100 µM

COC(=O)CC(SCCO)SCCO
inactive: [1] > 100 µM | [2] > 100 µM | [3] > 100 µM | [4] > 100 µM | [5] > 100 µM | [6] > 100 µM | [7] > 100 µM | [8] > 100 µM | [9] > 100 µM | [10] > 100 µM | [11] > 100 µM | [12] > 100 µM | [13] > 100 µM | [14] > 100 µM | [15] > 100 µM | [16] > 100 µM | [18] > 100 µM | [19] > 100 µM | [20] > 100 µM

CC(C)(C)c1cc(C2NC(=O)NC2=O)cc(C(C)(C)C)c1O (configuration not stated)
inactive: [1] > 100 µM | [2] 26.1 µM | [3] > 100 µM | [4] 20.5 µM | [5] 33.9 µM | [6] 18.8 µM | [7] > 100 µM | [8] 80 µM | [9] > 100 µM | [10] > 100 µM | [11] 85.7 µM | [12] 31.7 µM | [13] > 10 µM | [14] > 100 µM | [15] 53.6 µM | [16] 29 µM | [17] 39.5 µM | [19] 45.1 µM | [20] > 100 µM

CC(=O)c1cccc(NC(=O)C(=O)C(c2cnc3ccc([N+](=O)[O-])cc3n2)[N+](=O)[O-])c1 (configuration not stated)
inactive: [1] > 100 µM | [2] 36.4 µM | [3] 41 µM | [4] > 100 µM | [5] > 100 µM | [6] 54.1 µM | [7] 69 µM | [8] > 100 µM | [9] 95.5 µM | [10] > 100 µM | [11] > 100 µM | [12] > 100 µM | [14] > 100 µM | [15] 52.2 µM | [16] > 100 µM | [17] > 100 µM | [18] > 100 µM | [19] > 100 µM | [20] 38.5 µM
